Results taken from ChEMBL document CHEMBL4321809, “Structure-Reactivity Relationships on Substrates and Inhibitors of the Lysine Deacylase Sirtuin 2 from Schistosoma mansoni (SmSirt2)” (J Med Chem, 2019).
pIC50: −log10 of the molar value. Activity calls are given as the source filed them. No cut-off for these calls is given here.

How the values were obtained:
[1] = target: T1, NAD-dependent protein deacetylase (Schistosoma mansoni) (UniProt T1VXA1); test: (§1) Inhibition of recombinant Schistosoma mansoni sirtuin 2 (21 to 322 residues) expressed in Escherichia coli BL21(DE3) cells at 25 uM using ZMAL as susbtrate after 1 hr in presence of NAD+ by homogeneous fluorescence based analysis relative to control
T1 sequence (whole entry): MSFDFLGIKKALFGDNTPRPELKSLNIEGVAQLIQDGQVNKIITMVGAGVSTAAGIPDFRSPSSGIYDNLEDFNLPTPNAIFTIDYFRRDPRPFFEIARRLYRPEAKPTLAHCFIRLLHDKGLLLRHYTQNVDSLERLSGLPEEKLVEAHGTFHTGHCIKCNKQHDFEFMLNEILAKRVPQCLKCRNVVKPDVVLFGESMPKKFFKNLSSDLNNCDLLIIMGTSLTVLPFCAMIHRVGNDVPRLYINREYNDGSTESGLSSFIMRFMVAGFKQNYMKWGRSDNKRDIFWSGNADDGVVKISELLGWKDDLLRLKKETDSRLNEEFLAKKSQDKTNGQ

[2] = target: T2, NAD-dependent protein deacetylase sirtuin-2 (Homo sapiens, UniProt Q8IXJ6); test: Inhibition of N-terminal His6 tagged human sirtuin 2 (25 to 389 residues) at 25 uM using Cbz-Lys(acetyl)-AMC as substrate after 4 hrs in presence of NAD+ by homogeneous fluorescence based analysis relative to control
T2 sequence (Q8IXJ6 whole entry): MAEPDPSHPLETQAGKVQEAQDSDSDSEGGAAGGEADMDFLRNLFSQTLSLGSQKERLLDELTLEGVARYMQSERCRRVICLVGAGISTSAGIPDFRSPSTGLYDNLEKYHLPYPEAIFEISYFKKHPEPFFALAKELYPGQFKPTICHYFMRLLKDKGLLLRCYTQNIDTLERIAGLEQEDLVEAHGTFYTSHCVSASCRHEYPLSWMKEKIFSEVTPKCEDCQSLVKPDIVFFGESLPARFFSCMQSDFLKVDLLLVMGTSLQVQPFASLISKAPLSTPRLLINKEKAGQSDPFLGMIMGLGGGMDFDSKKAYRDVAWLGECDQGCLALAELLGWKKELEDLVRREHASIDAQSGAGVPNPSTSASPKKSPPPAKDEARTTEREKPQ

[3] = target: T2, NAD-dependent protein deacetylase sirtuin-2; test: Inhibition of N-terminal His6 tagged human sirtuin 2 (25 to 389 residues) using Cbz-Lys(acetyl)-AMC as substrate after 4 hrs in presence of NAD+ by homogeneous fluorescence based analysis
[4] = target: T3, NAD-dependent protein deacetylase (Schistosoma mansoni, UniProt T1VXA1); test: Inhibition of recombinant Schistosoma mansoni sirtuin 2 (21 to 322 residues) expressed in Escherichia coli BL21(DE3) cells using ZMAL as substrate after 1 hr in presence of NAD+ by homogeneous fluorescence based analysis
T3 sequence (T1VXA1 whole entry): T1 sequence (whole entry)

Schistosoma mansoni [5] = test: Antiparasitic activity against Schistosoma mansoni Puerto Rico assessed as reduction in parasite viability at 10 to 20 uM after 72 hrs by microscopic analysis; type: functional, organism-based
HL-60 = test: Cytotoxicity against human HL60 cells at 10 uM after 72 hrs by Cell titer MTS dye based analysis; details: hl-60, 72 h
Schistosoma mansoni [6] = test: Antiparasitic activity against adult Schistosoma mansoni Puerto Rico assessed as reduction in egg laying at 10 to 20 uM after 24 hrs by microscopic analysis; type: functional, organism-based
Schistosoma mansoni [7] = test: Antiparasitic activity against adult Schistosoma mansoni Puerto Rico assessed as reduction in worm pairing at 10 to 20 uM after 24 hrs by microscopic analysis; type: functional, organism-based
[8] = target: T4, NAD-dependent protein deacetylase sirtuin-3, mitochondrial (Homo sapiens, UniProt Q9NTG7); test: Inhibition of human sirtuin 3 at 25 uM relative to control
T4 sequence (Q9NTG7 whole entry): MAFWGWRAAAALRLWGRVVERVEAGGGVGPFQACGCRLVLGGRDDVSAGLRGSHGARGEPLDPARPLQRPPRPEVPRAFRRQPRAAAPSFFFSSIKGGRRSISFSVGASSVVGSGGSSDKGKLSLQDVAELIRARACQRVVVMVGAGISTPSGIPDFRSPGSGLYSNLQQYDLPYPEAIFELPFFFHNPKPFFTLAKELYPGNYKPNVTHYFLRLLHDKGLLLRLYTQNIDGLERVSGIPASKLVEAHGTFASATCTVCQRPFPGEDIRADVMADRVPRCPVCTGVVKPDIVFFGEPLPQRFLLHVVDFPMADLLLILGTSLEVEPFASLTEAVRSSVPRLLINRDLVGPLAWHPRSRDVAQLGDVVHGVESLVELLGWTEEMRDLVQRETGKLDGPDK

[9] = target: T5, NAD-dependent protein deacetylase sirtuin-1 (Homo sapiens, UniProt Q96EB6); test: Inhibition of human sirtuin 1 at 25 uM relative to control
T5 sequence (Q96EB6 whole entry): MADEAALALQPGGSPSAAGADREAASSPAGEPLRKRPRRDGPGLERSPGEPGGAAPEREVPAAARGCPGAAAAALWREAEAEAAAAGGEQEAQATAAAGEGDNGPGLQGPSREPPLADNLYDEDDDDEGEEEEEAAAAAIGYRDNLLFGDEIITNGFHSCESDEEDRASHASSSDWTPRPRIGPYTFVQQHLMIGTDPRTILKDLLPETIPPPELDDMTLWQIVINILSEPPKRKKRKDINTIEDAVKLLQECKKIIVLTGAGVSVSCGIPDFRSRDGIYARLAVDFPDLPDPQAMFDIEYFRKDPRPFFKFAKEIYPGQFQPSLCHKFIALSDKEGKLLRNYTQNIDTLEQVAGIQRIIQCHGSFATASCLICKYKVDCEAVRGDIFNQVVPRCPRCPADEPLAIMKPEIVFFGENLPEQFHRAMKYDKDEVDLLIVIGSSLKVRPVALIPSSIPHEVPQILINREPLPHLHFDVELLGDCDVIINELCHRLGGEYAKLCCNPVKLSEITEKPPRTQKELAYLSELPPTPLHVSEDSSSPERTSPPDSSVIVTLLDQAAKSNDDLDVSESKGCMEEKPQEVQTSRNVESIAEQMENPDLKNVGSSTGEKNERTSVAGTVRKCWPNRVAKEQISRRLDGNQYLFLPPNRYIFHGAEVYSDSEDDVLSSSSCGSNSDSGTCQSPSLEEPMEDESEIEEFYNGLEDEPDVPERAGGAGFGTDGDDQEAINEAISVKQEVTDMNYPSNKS

[10] = target: T1, NAD-dependent protein deacetylase (Schistosoma mansoni); test: as §1, with “cells assessed as inhibition of substrate demyristoylation” for “cells”, “20” for “25”, “(Z)-(Myr)-Lys-AMC” for “ZMAL”
[11] = target: T2, NAD-dependent protein deacetylase sirtuin-2; test: Inhibition of N-terminal His6 tagged human sirtuin 2 (25 to 389 residues) assessed as inhibition of substrate demyristoylation using (Z)-(Myr)-Lys-AMC as susbtrate after 4 hrs in presence of NAD+ by homogeneous fluorescence based analysis

Compound	inhibition [1] [%]	inhibition at 25 µM [2] [%]	pIC50 [4]	also measured
Nc1ncc2c(N)nc(N)nc2n1	< 15	< 15		
CN(Cc1ccccc1)c1ncc2c(N)nc(N)nc2n1	< 15	< 15		
CCCCCCCCCC(=O)Nc1ccc(-c2noc(CC3CCCN(Cc4cccc(F)c4C)C3)n2)cc1 (configuration not stated)	< 15	< 15		
CC(Nc1ncc2c(N)nc(N)nc2n1)c1ccccc1 (configuration not stated)	< 15	< 15		
COc1ccc(Oc2ccc(C(C)Nc3ncc4c(N)nc(N)nc4n3)cc2)cc1 (configuration not stated)	37.5	21		
CCC(c1ccc(Oc2ccc(OC)cc2)cc1)N(C)c1ncc2c(N)nc(N)nc2n1 (configuration not stated)			4.89	pIC50 [3]: 4.44
COc1ccc(CNc2ncc3c(N)nc(N)nc3n2)cc1	< 15	< 15		
COc1ccc(Oc2ccc(C(C)N(C)c3ncc4c(N)nc(N)nc4n3)cc2)cc1OC (configuration not stated)		35.3	4.35	
COc1cc(Oc2ccc(C(C)N(C)c3ncc4c(N)nc(N)nc4n3)cc2)cc(OC)c1OC (configuration not stated)		29.2	4.51	
CC1CCCCN1c1ncc2c(N)nc(N)nc2n1 (configuration not stated)	< 15	< 15		
COc1cc(OC)cc(Oc2ccc(C(C)N(C)c3ncc4c(N)nc(N)nc4n3)cc2)c1 (configuration not stated)		7.4	4.90	inhibition (Schistosoma mansoni [5]): Active; Activity (HL-60): Non-Toxic; inhibition (Schistosoma mansoni [6]): Active; inhibition (Schistosoma mansoni [7]): Active
COc1cccc(Oc2ccc(C(C)N(C)c3ncc4c(N)nc(N)nc4n3)cc2)c1 (configuration not stated)		33.8	4.64	
COc1ccc(COc2ccc(C(C)N(C)c3ncc4c(N)nc(N)nc4n3)cc2)cc1 (configuration not stated)	46.2	61.7		inhibition at 25 µM [8]: < 15%; inhibition at 25 µM [9]: < 15%; inhibition (Schistosoma mansoni [5]): Active; Activity (HL-60): Toxic; inhibition (Schistosoma mansoni [6]): Active; inhibition (Schistosoma mansoni [7]): Active
CC(c1ccccc1)N(C)c1ncc2c(N)nc(N)nc2n1 (configuration not stated)	< 15	< 15		
COc1ccc(Oc2ccc(C(C)N(C)c3ncc4c(N)nc(N)nc4n3)cc2)c2ccccc12 (configuration not stated)	18.4	30.6		
Nc1nc(N)c2cnc(NC3CCN(Cc4ccccc4)CC3)nc2n1	< 15	23.2		
CC(c1ccc(-c2ccccc2)cc1)N(C)c1ncc2c(N)nc(N)nc2n1 (configuration not stated)	24.8	< 15		
COC1=C(OC)C(=O)C(CCCCCCCCCCO)=C(C)C1=O [IDEBENONE]			5.72	pIC50 [3]: 4.81

Compound	inhibition [1] [%]	inhibition at 25 µM [2] [%]	pIC50 [4]	also measured
COc1ccc(Oc2ccc(C(c3ccccc3)N(C)c3ncc4c(N)nc(N)nc4n3)cc2)cc1 (configuration not stated)		22.1	5.63	inhibition (Schistosoma mansoni [5]): Active; Activity (HL-60): Non-Toxic; inhibition (Schistosoma mansoni [6]): Active; Imax [1]: 60%; inhibition (Schistosoma mansoni [7]): Active
CC(c1ccc(Oc2ccc(OC(F)(F)F)cc2)cc1)N(C)c1ncc2c(N)nc(N)nc2n1 (configuration not stated)	20.3	37.5		
Nc1nc(N)c2cnc(N3CCc4ccccc4C3)nc2n1	< 15	< 15		
CCCCCCCC(=O)Nc1ccc(-c2noc(CC3CCCN(Cc4cccc(F)c4C)C3)n2)cc1 (configuration not stated)	30.5	< 15		
COc1cc(OC)cc(Sc2ccc(C(C)N(C)c3ncc4c(N)nc(N)nc4n3)cc2)c1 (configuration not stated)		27.9	5.37	inhibition at 25 µM [8]: < 15%; inhibition at 25 µM [9]: < 15%; inhibition (Schistosoma mansoni [5]): Active; inhibition [10]: 15%; Activity (HL-60): Non-Toxic; inhibition (Schistosoma mansoni [6]): Active; pIC50 [11]: 4.60; inhibition (Schistosoma mansoni [7]): Active
CC(c1ccc(Oc2ccccc2)cc1)N(C)c1ncc2c(N)nc(N)nc2n1 (configuration not stated)	27.6	< 15		
COc1ccc(Oc2ccc(CN(C)c3ncc(C#N)c(N)n3)cc2)cc1	< 15	< 15		
CNC(C)c1ccc(Oc2ccccc2)cc1 (configuration not stated)	< 15	< 15		
CC(=O)Nc1ccc(-c2noc(CC3CCCN(Cc4cccc(F)c4C)C3)n2)cc1 (configuration not stated)			4.84 to 4.85	pIC50 [3]: 5.10 to 5.44
COc1ccc(Nc2ccc(C(C)N(C)c3ncc4c(N)nc(N)nc4n3)cc2)cc1 (configuration not stated)		40.8	4.19	
CC(c1ccc(Oc2ccc(OCc3ccccc3)cc2)cc1)N(C)c1ncc2c(N)nc(N)nc2n1 (configuration not stated)	40.3	70.4		
Nc1nc(N)c2cnc(N3CCN(c4ccccc4)CC3)nc2n1	< 15	< 15		
COc1ccc(Oc2ccc(C(C(C)C)N(C)c3ncc4c(N)nc(N)nc4n3)cc2)cc1 (configuration not stated)		57.4	4.56	
COc1ccc(Oc2ccc(CN(C)c3ncc4c(N)nc(N)nc4n3)cc2)cc1	< 15	< 15		inhibition at 25 µM [8]: < 15%; inhibition at 25 µM [9]: < 15%; inhibition (Schistosoma mansoni [5]): Active; Activity (HL-60): Toxic; inhibition (Schistosoma mansoni [6]): Active; inhibition (Schistosoma mansoni [7]): Active
COc1ccc(Sc2ccc(C(C)N(C)c3ncc4c(N)nc(N)nc4n3)cc2)cc1 (configuration not stated)			4.83	pIC50 [3]: 4.88
COc1ccc(C(C)N(C)c2ncc3c(N)nc(N)nc3n2)cc1 (configuration not stated)	< 15	< 15		
COc1cc(OC)cc(Oc2ccc(C(c3ccccc3)N(C)c3ncc4c(N)nc(N)nc4n3)cc2)c1 (configuration not stated)		29.6	5.48	inhibition at 25 µM [8]: < 15%; inhibition at 25 µM [9]: < 15%; inhibition (Schistosoma mansoni [5]): Active; inhibition [10]: < 15%; Activity (HL-60): Non-Toxic; inhibition (Schistosoma mansoni [6]): Active; pIC50 [11]: 4.88; inhibition (Schistosoma mansoni [7]): Active
